Experiment [1] has as its target Disintegrin and metalloproteinase domain-containing protein 17 (Homo sapiens, UniProt P78536). In words: Concentration required in vitro to inhibit TNF-alpha converting enzyme (TACE).
Experiment [2] deals with T1, Interstitial collagenase (Homo sapiens, UniProt P03956).
T1 sequence (P03956 whole entry): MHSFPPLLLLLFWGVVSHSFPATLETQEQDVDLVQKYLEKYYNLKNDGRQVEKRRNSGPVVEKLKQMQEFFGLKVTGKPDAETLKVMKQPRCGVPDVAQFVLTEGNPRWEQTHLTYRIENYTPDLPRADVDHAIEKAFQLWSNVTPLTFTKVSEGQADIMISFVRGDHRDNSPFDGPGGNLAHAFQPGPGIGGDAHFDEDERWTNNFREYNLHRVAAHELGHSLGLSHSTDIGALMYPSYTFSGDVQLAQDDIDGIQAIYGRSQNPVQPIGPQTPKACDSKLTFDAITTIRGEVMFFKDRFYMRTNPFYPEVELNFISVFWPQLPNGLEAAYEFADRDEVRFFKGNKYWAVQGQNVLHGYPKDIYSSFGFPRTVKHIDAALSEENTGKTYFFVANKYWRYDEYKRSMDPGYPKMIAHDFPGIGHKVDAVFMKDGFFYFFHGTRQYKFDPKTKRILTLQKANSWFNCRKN
The experiment in a line: Concentration required in vitro to inhibit Matrix metalloprotease-1.

The species named for experiment [3] is Bos taurus. In words: Inhibition of cartilage degradation by the compound was detected using bovine cartilage explant model at 1 uM. Type of experiment: functional, Cartilage tissue.
The test system of experiment [4] is Rattus norvegicus. In words: Dialysis activity is detected at a dose of 50 mpk after 2 hr of ip administration. Type of experiment: functional. Also noted: unit not given here.
Experiment [5] addresses Matrix metalloproteinase-9 (Homo sapiens, UniProt P14780). In words: Concentration required in vitro to inhibit Matrix metalloprotease-9.
The species named for experiment [6] is Bos taurus. The experiment in a line: Compound was tested for inhibition of cartilage degradation using bovine cartilage explant model. It is filed as functional, Cartilage tissue.
Experiment [7] has as its target Collagenase 3 (Homo sapiens, UniProt P45452). The experiment in a line: Concentration required in vitro to inhibit Matrix metalloprotease-13.
Experiment [8] concerns THP-1. The experiment in a line: Compound was tested for its ability to inhibit TNF-alpha in a cellular assay using THP-1 cells at 3 uM. Type of experiment: functional. To be noted: Homo sapiens.
The species entered for experiment [9] is Rattus norvegicus. In words: Dialysis activity is detected at a dose of 50 mpk; IA denotes inactive. Type of experiment: functional, organism-based.
For experiment [10], the system named is Rattus norvegicus. In words: Dialysis activity is detected at a dose of 50 mpk after 1 hr of ip administration. It is filed as functional.
For experiment [11], the system named is Rattus norvegicus. In words: Dialysis activity is detected at a dose of 50 mpk after 1 hr of po administration. It is filed as functional. Also noted: unit not given here.
Experiment [12] is filed under the species Rattus norvegicus. The experiment in a line: Dialysis activity is detected at a dose of 50 mpk. It is filed as functional.

Activity calls are given as the source filed them. The calls are words filed in the database; no cut-off is given here.

The term IC50 denotes the concentration needed to halve the response being measured. As a reminder, the Inhibition is the relative decrease from the control value, in per cent. Usually inhibition stands for the share of the control response that was lost under treatment.

Sequence of Matrix metalloproteinase-9 (P14780 whole entry): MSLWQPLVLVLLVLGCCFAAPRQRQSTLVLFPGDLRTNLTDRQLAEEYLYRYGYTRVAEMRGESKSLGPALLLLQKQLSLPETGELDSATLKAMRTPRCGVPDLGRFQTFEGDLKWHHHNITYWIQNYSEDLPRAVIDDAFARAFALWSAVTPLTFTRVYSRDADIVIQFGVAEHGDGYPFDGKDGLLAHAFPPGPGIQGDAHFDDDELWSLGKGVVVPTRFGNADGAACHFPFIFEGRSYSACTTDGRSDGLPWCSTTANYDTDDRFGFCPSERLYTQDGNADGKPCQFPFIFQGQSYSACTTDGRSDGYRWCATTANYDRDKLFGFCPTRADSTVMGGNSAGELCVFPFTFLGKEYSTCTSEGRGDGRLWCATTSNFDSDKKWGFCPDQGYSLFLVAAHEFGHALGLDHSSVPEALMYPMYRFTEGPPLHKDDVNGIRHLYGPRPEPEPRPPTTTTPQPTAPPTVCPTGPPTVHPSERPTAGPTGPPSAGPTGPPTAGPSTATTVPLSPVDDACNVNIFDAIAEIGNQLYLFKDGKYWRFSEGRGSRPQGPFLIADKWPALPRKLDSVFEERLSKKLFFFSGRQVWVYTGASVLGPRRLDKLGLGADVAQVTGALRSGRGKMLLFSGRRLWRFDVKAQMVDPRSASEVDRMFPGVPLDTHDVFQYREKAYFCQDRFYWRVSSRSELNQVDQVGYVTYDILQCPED
Sequence of Disintegrin and metalloproteinase domain-containing protein 17 (P78536 whole entry, the tested form may be a part): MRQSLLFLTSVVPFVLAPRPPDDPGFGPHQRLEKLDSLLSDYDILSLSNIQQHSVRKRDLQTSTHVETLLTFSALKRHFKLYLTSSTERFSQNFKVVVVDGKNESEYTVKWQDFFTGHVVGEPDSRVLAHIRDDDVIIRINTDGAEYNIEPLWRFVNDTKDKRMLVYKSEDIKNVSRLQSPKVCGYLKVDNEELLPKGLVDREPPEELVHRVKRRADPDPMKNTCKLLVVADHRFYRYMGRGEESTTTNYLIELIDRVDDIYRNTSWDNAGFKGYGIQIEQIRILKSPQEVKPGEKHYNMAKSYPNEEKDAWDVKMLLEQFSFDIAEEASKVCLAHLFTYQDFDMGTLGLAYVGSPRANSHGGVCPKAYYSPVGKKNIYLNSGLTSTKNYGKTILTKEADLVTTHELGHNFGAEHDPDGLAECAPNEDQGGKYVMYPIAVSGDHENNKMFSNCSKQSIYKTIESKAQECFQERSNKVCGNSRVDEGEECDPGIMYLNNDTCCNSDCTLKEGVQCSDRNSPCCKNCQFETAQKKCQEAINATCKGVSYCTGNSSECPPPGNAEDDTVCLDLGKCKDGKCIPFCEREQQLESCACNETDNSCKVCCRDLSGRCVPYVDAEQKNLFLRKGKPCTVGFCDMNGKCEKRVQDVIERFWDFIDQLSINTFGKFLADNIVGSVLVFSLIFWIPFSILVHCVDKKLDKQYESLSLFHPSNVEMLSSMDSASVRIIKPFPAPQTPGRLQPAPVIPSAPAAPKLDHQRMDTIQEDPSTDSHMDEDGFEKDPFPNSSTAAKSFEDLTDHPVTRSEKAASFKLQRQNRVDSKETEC

In the case of `O=C(NO)C1CN(C(=O)c2ccccc2)c2ccccc2CN1S(=O)(=O)c1ccc(Oc2ccc(Cl)cc2)cc1` (stereo unspecified), the concentration for half-maximal inhibition (IC50) came out at 528 nM in [1] and 59 nM in experiment [2].

Take `COc1ccc(S(=O)(=O)N2Cc3ccccc3N(C(=O)c3ccccc3)CC2C(=O)NO)cc1` (stereo unspecified): the Activity stood at 0.73 in experiment [3] and 1.2 in experiment [4]. This compound also yielded an IC50 in [5] of 0.6 nM. The compound further had an Inhibition in experiment [6] of 46.3%.

As to `CC#CCOc1ccc(S(=O)(=O)N2Cc3ccccc3N(C(=O)c3ccccc3)CC2C(=O)NO)cc1` (stereo unspecified), in experiment [7], half-maximal inhibition (IC50) was put at 9.5 nM. In addition, testing at 3 µM in [8] gave an inhibition of 25%.

Take `COCC(=O)N1CC(C(=O)NO)N(S(=O)(=O)c2ccc(Oc3ccc(Cl)cc3)cc2)Cc2ccccc21` (stereo unspecified): the 50% inhibitory concentration (IC50) in experiment [1] turned out to be 157 nM; in experiment [2], 61 nM. Also, in [9], the IA entry is “inactive”.

Regarding `COc1ccc(S(=O)(=O)N2Cc3ccccc3N(C(=O)C3CC3)CC2C(=O)NO)cc1` (stereo unspecified), the Activity in experiment [10] turned out to be 0.8; in [11], 0.49.

Regarding `CC#CCOc1ccc(S(=O)(=O)N2Cc3ccccc3N(S(C)(=O)=O)CC2C(=O)NO)cc1` (stereo unspecified), the half-maximal inhibitory concentration (IC50) in experiment [1] was found to be 20 nM; in [7] it was 34.6 nM; in experiment [5], 95.5 nM; in experiment [2] it was 260 nM. 3 µM produced 44% inhibition in [8].

Consider `CCOc1ccc(C(=O)N2CC(C(=O)NO)N(S(=O)(=O)c3ccc(OC)cc3)Cc3ccccc32)cc1` (stereo unspecified), for which the IC50 in experiment [7] came out at 2 nM; in experiment [5], 2 nM; in experiment [2], 24 nM.

`COc1ccc(S(=O)(=O)N2Cc3ccccc3N(C(C)=O)CC2C(=O)NO)cc1` (stereo unspecified): the Activity in experiment [4] is given as 1.7; in experiment [11], 0.9. In addition, the 50% inhibitory concentration (IC50) in [2] stood at 18 nM.

Take `COc1ccc(S(=O)(=O)N2Cc3ccccc3N(C(=O)CCc3ccccc3)CC2C(=O)NO)cc1` (stereo unspecified): the Activity in [4] was found to be 0.22.

In the case of `COc1ccc(S(=O)(=O)N2Cc3ccccc3N(C(=O)c3cc(F)ccc3C)CC2C(=O)NO)cc1` (stereo unspecified), the values for the IC50 in experiment [7] and in experiment [5] were 2 nM and 4 nM, respectively.

In the case of `COCC(=O)N1CC(C(=O)NO)N(S(=O)(=O)c2ccc(Oc3ccncc3)cc2)Cc2ccccc21` (stereo unspecified), the IC50 in [1] is 157 nM; in [7], 2 nM; in experiment [5], 2 nM; in experiment [2], 763 nM. The Activity in [11] is given as 0.32.

Regarding `COc1ccc(S(=O)(=O)N(Cc2cccnc2)[C@@H](C(=O)NO)C(C)C)cc1.Cl` [CGS-27023A], the Activity in [3] and in experiment [12] was 1 throughout. Besides, the Inhibition in [6] is reported as 63%.

Take `O=C(NO)C1CN(C(=O)c2cccs2)c2ccccc2CN1S(=O)(=O)c1ccc(Oc2ccc(Cl)cc2)cc1` (stereo unspecified): the concentration for half-maximal inhibition (IC50) was determined as 254 nM in [1], 4 nM in experiment [7], 2 nM in experiment [5] and 35 nM in experiment [2].

Turning to `CC#CCOc1ccc(S(=O)(=O)N2Cc3ccccc3N(C(C)=O)CC2C(=O)NO)cc1` (stereo unspecified), the inhibition at 3 µM in experiment [8] worked out at 60%.

In the case of `CC#CCOc1ccc(S(=O)(=O)N2Cc3ccccc3N(C(=O)C3CC3)CC2C(=O)NO)cc1` (stereo unspecified), the IC50 in [1] is 10 nM; in [7], 29 nM; in experiment [5], 33 nM; in [2], 841 nM. This compound came in with an inhibition at 3 µM in experiment [8] of 59%.

Turning to `COc1ccc(S(=O)(=O)N2Cc3ccccc3N(C(=O)c3cccs3)CC2C(=O)NO)cc1` (stereo unspecified), the Activity in experiment [3] is given as 1.2; in [4], 1.1. Besides, the values for the IC50 in experiment [7] and in experiment [2] were 1 nM and 20 nM, respectively.

The compound `COc1ccc(S(=O)(=O)N2Cc3ccccc3N(S(C)(=O)=O)CC2C(=O)NO)cc1` (stereo unspecified) had an IC50 in experiment [5] of 8 nM.

Consider `COCC(=O)N1CC(C(=O)NO)N(S(=O)(=O)c2ccc(OC)cc2)Cc2ccccc21` (stereo unspecified), for which the values for the Activity in [3] and in experiment [11] were 2.5 and 1, respectively. Besides, the half-inhibitory concentration (IC50) in experiment [7] and in experiment [5] was 2 nM throughout.

As for `COc1ccc(S(=O)(=O)N2Cc3ccccc3N(C(=O)C3CCCCC3)CC2C(=O)NO)cc1` (stereo unspecified), half-maximal inhibition in experiment [5] (IC50) was put at 13 nM. In addition, the Activity in [11] was 0.47.

The values above are taken from ChEMBL document CHEMBL1135203, “Benzodiazepine inhibitors of the MMPs and TACE” (Bioorg Med Chem Lett, 2002).
